Measurements taken from publication PMC10102062, “Effects of DPTQ, a novel positive allosteric modulator of the dopamine D1 receptor, on spontaneous eye blink rate and spatial working memory in the nonhuman primate” (Psychopharmacology, 2023).

Tests used:
[1] = tested on: rhesus monkeys; assay: Spontaneous eye blink rate, cumulative dosing; format: in vivo, rhesus monkey
Excerpt: Eleven 5–6-year-old, male rhesus monkeys (Chengdu Ping, An Animal Breeding and Research Base, Sichuan Province, China) with an average weight of 4.83 kg were included in the study. The animals were randomly divided into three groups, DPTQ higher cumulative dose group (n = 4); DPTQ lower cumulative dose group (n = 3); and vehicle (20% Captisol (CyDex Pharmaceuticals, Inc., KS) in NaPO4 buffer) group (n = 4). The D1 agonist SKF82958 was included as a positive control; the results for this compound (not shown here) were recently published together with data for a different D1PAM (DETQ, see Bruns et al. [2018]). The D1 selective antagonist SCH39166 hydrobromide (Cat No.: 2299, Batch No.: 3A/129719) was purchased from Tocris, MN, and was prepared in Millipore pure water with the injection volume 0.2 ml/kg. The D1 antagonist was dosed 15 min before vehicle or DPTQ (n = 4 animals per group).
Spontaneous eye blinking rate was measured during observational experiments conducted in a specially constructed monkey chair (Mason et al. [2019]). A U-shaped neck plate that helped to fixate the orientation of the head was used to facilitate observation of eye blink rate response. A compact video camera (Panasonic/wv-cp480/CH) on a tripod was positioned in front of the seated monkey. Two camera images were combined by video collector (Color QUAD system) and transferred to the EthoVision software (Noldus, Leesburg, VA) on the computer for on-line viewing and recording.
Two weeks before testing, monkeys were trained daily to sit in the monkey chair for two 2-h periods with food reward. During post-training test sessions conducted between 9:00 am and 4:30 pm every day, each monkey was studied for nine consecutive 15-min components. Each 15-min block consisted of a 10-min habituation period followed by a 5-min period during which eye blinking was counted. […] Observers blind to the treatment conditions later scored each 5-min videotaped session. An eye blink was defined as a visible, rapid opening and closing of the eyelid. Two observers independently confirmed the measurement with reliability > 90%.
The effects of different D1 ligands on spontaneous eye blink rate were studied by a cumulative dosing procedure (Jutikiewicz and Bergman 2004). Active compound or vehicle (Captisol 20% w/v NaPO4 buffer) was administered after obtaining two baseline eye blink recordings. The ligand was given in random order to different monkeys of each group as described above. To study dose response and time course, incremental doses of DPTQ were administrated at the end of 15-min components of each test session.
DPTQ (free base, see Hao et al. [2019]) was supplied by Eli Lilly Company. Captisol (Lot No.: NC-04A-05034) was prepared as follows: Captisol 20% w/v NaPO4 buffer 25 mM, pH 8. The injection volume for DPTQ was 0.5 ml/kg IM. DPTQ at 0.1 mg/kg, 0.5 mg/kg, and 1 mg/kg were dosed as clear solution, while the 5 mg/kg and 10 mg/kg doses were formulated as fine suspensions. The above vehicle solution was stored at 4℃ in a refrigerator and restored to room temperature before use. When preparing DPTQ fresh daily, a portion of the vehicle (20% Captisol) was added to the compound and stirred to wet, followed by addition of the remainder of the vehicle and mixing until the solution became homogeneous. The suspension was then sonicated on an ice bath for 40 min to reduce particle size. Animals were dosed while in the chair.
Results for each monkey were expressed as the rate of eye blinking (blinks per minute) averaged over each 5-min testing epoch. The effects of vehicle and D1 PAM on eye blinking were averaged for each group of monkeys and expressed as mean ± SE. The effects of DPTQ and vehicle were analyzed with two-way ANOVA (D1 PAM and time) followed by Bonferroni post hoc test (GraphPad Prism, San Diego CA).

[2] = tested on: rhesus monkeys; set-up: method as in Bruns et al., [2018]; details: smaller response than SKF82958; ref Bruns et al., [2018]; cited from earlier work
[3] = target: D2 receptor (Homo sapiens, UniProt P14416); set-up: method as in previously published data; details: at 10 µM, functional and binding studies; ref previously published data; cited from earlier work
[4] = tested on: pCREB and the AMPA receptor pGluR1; set-up: method as in Bruns et al. [2018]; details: hD1 mouse; similar to SKF82958; ref Bruns et al. [2018]; cited from earlier work
[5] = tested on: adult human volunteers; set-up: method as in Wilbraham et al. [2021]; details: clinical studies; ref Wilbraham et al. [2021]; cited from earlier work

D2 receptor, sequence (P14416 whole entry): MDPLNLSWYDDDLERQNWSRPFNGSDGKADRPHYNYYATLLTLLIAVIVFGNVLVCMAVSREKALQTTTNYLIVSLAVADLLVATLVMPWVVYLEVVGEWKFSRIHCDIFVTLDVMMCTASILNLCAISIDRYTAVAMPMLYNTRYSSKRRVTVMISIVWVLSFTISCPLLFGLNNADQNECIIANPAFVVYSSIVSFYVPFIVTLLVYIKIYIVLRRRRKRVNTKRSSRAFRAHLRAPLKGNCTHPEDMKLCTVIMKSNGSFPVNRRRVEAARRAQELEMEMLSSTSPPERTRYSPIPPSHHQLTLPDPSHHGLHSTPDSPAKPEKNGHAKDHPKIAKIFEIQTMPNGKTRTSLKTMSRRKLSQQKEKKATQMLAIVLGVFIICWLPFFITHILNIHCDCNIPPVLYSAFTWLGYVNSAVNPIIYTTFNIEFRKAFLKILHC

Structure (SMILES) | Duration of eye blink reduction/sedation ([1]; 0.03 mg/kg IM alone) | Spontaneous eye blink rate, antagonist alone ([1]; 0.03 mg/kg IM alone) | Visual observation of sedation ([1]; 0.03 mg/kg IM alone) | Effect on DPTQ-induced increase in spontaneous eye blink rate ([1]; SCH39166 pretreatment, high cumulative doses of DPTQ, n = 4/group) | Spontaneous eye blink rate [2] | Activity at the D2 receptor [3] | Brain levels of pCREB and pGluR1 [4] | Oral movement with tongue protrusion [5]
CN1CCc2cc(Cl)c(O)cc2[C@H]2c3ccccc3CC[C@@H]21 [SCH39166, reference compound] | about 15 min | brief reduction in eye blink rate | slightly sedated | blocks | – | – | – | –
C[C@H]1c2cccc(C(C)(C)O)c2C[C@H](CO)N1C(=O)Cc1c(Cl)cccc1Cl [DETQ] | – | – | – | – | enhanced spontaneous eye blink rate | no activity | enhances | –
C[C@H]1c2cccc(CCC(C)(C)O)c2C[C@H](CO)N1C(=O)Cc1c(Cl)cccc1Cl [mevidalen, 2-(2,6-dichlorophenyl)-1-((1S,3R)-5-(3-hydroxy-3-methylbutyl)-3-(hydroxymethyl)-1-methyl-3,4-dihydroisoquinolin-2(1H)-yl)ethan-1-one] | – | – | – | – | – | no activity | – | not reported
